Measurements from PubChem BioAssay AID196 (DTP/NCI, 2004).
Several values for one entry are separate records, joined by “and”; a condition that tells them apart may be missing. Equal values may be shown once. Toxic doses and inconclusive results are not listed.

Test system: BDF1 mice, intracerebral B16 melanoma, median survival T/C
Test: NCI In Vivo Anticancer Drug Screen. Data for tumor model B16 Melanoma (intracerebral) in B6D2F1 (BDF1) mice
Conditions: endpoint: median survival time, higher = longer survival
Protocol: The antitumor activity of compounds was measured in mice bearing transplantable tumors. Survival or tumor size were measured and the results are expressed as the measurement made in the treated group (T) divided by the measurement made in the vehicle treated control group (C). The tumor model used in this assay is B16 Melanoma (intracerebral) in B6D2F1 (BDF1) mice

[1] = dose: 0.5 mg/kg/injection, schedule: Q01DX009 (ip), vehicle: saline
[2] = dose: 1.0 mg/kg/injection, schedule: Q01DX009 (ip), vehicle: saline
[3] = dose: 2.0 mg/kg/injection, schedule: Q01DX009 (ip), vehicle: saline
[4] = dose: 8.0 mg/kg/injection, schedule: Q01DX009 (ip), vehicle: Klucel (hydroxypropylcellulose) (HPC)
[5] = dose: 16.0 mg/kg/injection, schedule: Q01DX009 (ip), vehicle: Klucel (hydroxypropylcellulose) (HPC)
[6] = dose: 32.0 mg/kg/injection, schedule: Q01DX009 (ip), vehicle: Klucel (hydroxypropylcellulose) (HPC)
[7] = dose: 64.0 mg/kg/injection, schedule: Q01DX005 (ip), vehicle: saline with Tween-80
[8] = dose: 64.0 mg/kg/injection, schedule: Q01DX009 (ip), vehicle: Klucel (hydroxypropylcellulose) (HPC)
[9] = dose: 128.0 mg/kg/injection, schedule: Q01DX005 (ip), vehicle: saline with Tween-80
[10] = dose: 128.0 mg/kg/injection, schedule: Q01DX009 (ip), vehicle: Klucel (hydroxypropylcellulose) (HPC)
[11] = dose: 256.0 mg/kg/injection, schedule: Q01DX009 (ip), vehicle: Klucel (hydroxypropylcellulose) (HPC)
[12] = dose: 0.13 mg/kg/injection, schedule: Q01DX009 (ip), vehicle: saline
[13] = dose: 0.25 mg/kg/injection, schedule: Q01DX009 (ip), vehicle: saline
[14] = dose: 0.25 mg/kg/injection, schedule: Q03HX008 (ip), vehicle: saline
[15] = dose: 0.5 mg/kg/injection, schedule: Q03HX008 (ip), vehicle: saline
[16] = dose: 1.0 mg/kg/injection, schedule: Q03HX008 (ip), vehicle: saline

Structure (SMILES): COc1cc(C[C@H]2c3cc(OC)c(OC)cc3CCN2C)c(Oc2cc3c(cc2OC)-c2c(OC)c(OC)cc4c2[C@H](C3)N(C)CC4)cc1OC
- T/C (dose: 50.0 mg/kg/injection, schedule: Q01DX005 (ip), vehicle: Klucel (hydroxypropylcellulose) (HPC)): 120 % of control and 94 % of control
- T/C (dose: 100.0 mg/kg/injection, schedule: Q01DX005 (ip), vehicle: Klucel (hydroxypropylcellulose) (HPC)): 108 % of control

Structure (SMILES): O=NN(CCCl)C(=O)NC1OC(CO)C(O)C(O)C1O (centres undefined)
- T/C (dose: 0.31 mg/kg/injection, schedule: Q01DX009 (ip), vehicle: saline): 112 % of control
- T/C (dose: 0.62 mg/kg/injection, schedule: Q01DX009 (ip), vehicle: saline): 109 % of control
- T/C (dose: 1.25 mg/kg/injection, schedule: Q01DX009 (ip), vehicle: saline): 115 % of control
- T/C (dose: 2.5 mg/kg/injection, schedule: Q01DX009 (ip), vehicle: saline): 106 % of control
- T/C (dose: 5.0 mg/kg/injection, schedule: Q01DX009 (ip), vehicle: saline): 122 % of control

Structure (SMILES): S=c1nc[nH]c2nc[nH]c12
- T/C (dose: 11.3 mg/kg/injection, schedule: Q01DX009 (ip), vehicle: other): 91 % of control
- T/C (dose: 22.5 mg/kg/injection, schedule: Q01DX009 (ip), vehicle: other): 100 % of control
- T/C (dose: 45.0 mg/kg/injection, schedule: Q01DX009 (ip), vehicle: other): 100 % of control

Structure (SMILES): CN=NNc1nc[nH]c1C(N)=O
- T/C (dose: 16.0 mg/kg/injection, schedule: Q01DX005 (ip), vehicle: saline): 106 % of control
- T/C (dose: 32.0 mg/kg/injection, schedule: Q01DX005 (ip), vehicle: saline): 95 % of control
- T/C (dose: 64.0 mg/kg/injection, schedule: Q01DX005 (ip), vehicle: saline): 102 % of control
- T/C (dose: 128.0 mg/kg/injection, schedule: Q01DX005 (ip), vehicle: saline): 107 % of control

Structure (SMILES): O=NN(CCCl)C(=O)NCCCl
- T/C [1]: 104 % of control and 112 % of control
- T/C [2]: 109 % of control and 113 % of control
- T/C (dose: 1.87 mg/kg/injection, schedule: Q01DX009 (ip), vehicle: saline): 120 % of control
- T/C [3]: 111 % of control and 112 % of control
- T/C (dose: 2.5 mg/kg/injection, schedule: Q04DX003 (ip), vehicle: saline sonified): 108 % of control
- T/C (dose: 3.8 mg/kg/injection, schedule: Q01DX009 (ip), vehicle: saline): 108 % of control
- T/C (dose: 5.0 mg/kg/injection, schedule: Q01DX009 (ip), vehicle: other): 158 % of control
- T/C (dose: 7.5 mg/kg/injection, schedule: Q01DX009 (ip), vehicle: saline): 150 % of control
- T/C (dose: 8.0 mg/kg/injection, schedule: Q01DX009 (ip), vehicle: saline): 172 % of control and 188 % of control
- T/C (dose: 10.0 mg/kg/injection, schedule: Q04DX003 (ip), vehicle: saline sonified): 175 % of control
- T/C (dose: 15.0 mg/kg/injection, schedule: Q01DX009 (ip), vehicle: saline): 91 % of control and 108 % of control

Structure (SMILES): CC/C(=C(/CC)c1ccc(O)cc1)c1ccc(O)cc1
- T/C [4]: 106 % of control
- T/C (dose: 16.0 mg/kg/injection, schedule: Q01DX005 (ip), vehicle: saline with Tween-80): 100 % of control
- T/C [5]: 102 % of control
- T/C (dose: 32.0 mg/kg/injection, schedule: Q01DX005 (ip), vehicle: saline with Tween-80): 99 % of control and 111 % of control
- T/C [6]: 95 % of control
- T/C [7]: 96 % of control and 103 % of control
- T/C [8]: 106 % of control
- T/C [9]: 88 % of control and 102 % of control
- T/C [10]: 104 % of control
- T/C [11]: 111 % of control

Structure (SMILES): CCC(=O)O[C@H]1CC[C@H]2[C@@H]3CC[C@H]4CC(=O)[C@H](C)C[C@]4(C)[C@H]3CC[C@]12C
- T/C [4]: 100 % of control
- T/C [5]: 94 % of control
- T/C [6]: 105 % of control
- T/C [8]: 100 % of control
- T/C [10]: 101 % of control
- T/C [11]: 103 % of control
- T/C (dose: 512.0 mg/kg/injection, schedule: Q01DX009 (ip), vehicle: Klucel (hydroxypropylcellulose) (HPC)): 94 % of control

Structure (SMILES): CN(CO)c1nc(N(C)CO)nc(N(C)CO)n1
- T/C (dose: 50.0 mg/kg/injection, schedule: Q01DX009 (ip), vehicle: Klucel (hydroxypropylcellulose) (HPC)): 100 % of control and 104 % of control
- T/C (dose: 100.0 mg/kg/injection, schedule: Q01DX009 (ip), vehicle: Klucel (hydroxypropylcellulose) (HPC)): 120 % of control and 106 % of control

Structure (SMILES): CN(C)/N=N/c1[nH]ncc1C(N)=O
- T/C [7]: 154 % of control
- T/C [9]: 121 % of control

Structure (SMILES): COCC(O)Cn1ccnc1[N+](=O)[O-] (centres undefined)
- T/C [10]: 89 % of control
- T/C [11]: 86 % of control

Structure (SMILES): COc1cccc2c1C(=O)c1c(O)c3c(c(O)c1C2=O)C[C@@](O)(C(=O)CO)C[C@@H]3OC1CC(N)C(O)C(C)O1 (some centres undefined)
- T/C [12]: 91 % of control
- T/C [13]: 108 % of control
- T/C [14]: 100 % of control
- T/C [1]: 112 % of control
- T/C [15]: 100 % of control
- T/C [2]: 104 % of control
- T/C [16]: 107 % of control
- T/C [3]: 108 % of control
- T/C (dose: 2.0 mg/kg/injection, schedule: Q03HX008 (ip), vehicle: saline): 96 % of control
- T/C (dose: 4.0 mg/kg/injection, schedule: Q01DX009 (ip), vehicle: saline): 116 % of control

Structure (SMILES): O=C1C(NCCO)=C(N2CC2)C(=O)C(NCCO)=C1N1CC1
- T/C (dose: 0.09 mg/kg/injection, schedule: Q01DX009 (ip), vehicle: saline): 97 % of control
- T/C (dose: 0.19 mg/kg/injection, schedule: Q01DX009 (ip), vehicle: saline): 103 % of control
- T/C (dose: 0.38 mg/kg/injection, schedule: Q01DX009 (ip), vehicle: saline): 109 % of control
- T/C (dose: 0.75 mg/kg/injection, schedule: Q01DX009 (ip), vehicle: saline): 100 % of control

Structure (SMILES): Cc1ncc(CNC(=O)N(CCCl)N=O)c(N)n1
- T/C (dose: 12.5 mg/kg/injection, schedule: Q01DX009 (ip), vehicle: Klucel (hydroxypropylcellulose) (HPC)): 179 % of control
- T/C (dose: 25.0 mg/kg/injection, schedule: Q01DX009 (ip), vehicle: Klucel (hydroxypropylcellulose) (HPC)): 105 % of control

Structure (SMILES): COc1ccc(C(=O)/C(Br)=C/C(=O)O)cc1
- T/C (dose: 10.0 mg/kg/injection, schedule: Q01DX005 (ip), vehicle: saline): 91 % of control and 105 % of control
- T/C (dose: 20.0 mg/kg/injection, schedule: Q01DX005 (ip), vehicle: saline): 90 % of control and 93 % of control
- T/C (dose: 40.0 mg/kg/injection, schedule: Q01DX005 (ip), vehicle: saline): 97 % of control and 99 % of control

Structure (SMILES): COc1cc(NS(C)(=O)=O)ccc1Nc1c2ccccc2nc2c(C)cccc12
- T/C (dose: 5.0 mg/kg/injection, schedule: Q04DX003 (ip), vehicle: Klucel (hydroxypropylcellulose) (HPC)): 88 % of control
- T/C (dose: 5.0 mg/kg/injection, schedule: Q04DX003 (ip), vehicle: saline): 108 % of control
- T/C (dose: 10.0 mg/kg/injection, schedule: Q04DX003 (ip), vehicle: Klucel (hydroxypropylcellulose) (HPC)): 91 % of control
- T/C (dose: 10.0 mg/kg/injection, schedule: Q04DX003 (ip), vehicle: saline): 100 % of control
- T/C (dose: 20.0 mg/kg/injection, schedule: Q04DX003 (ip), vehicle: saline): 116 % of control

Structure (SMILES): COc1cc(NS(C)(=O)=O)ccc1Nc1c2cccc(C)c2nc2c(C)cccc12
- T/C (dose: 25.0 mg/kg/injection, schedule: Q04DX003 (ip), vehicle: Klucel (hydroxypropylcellulose) (HPC)): 97 % of control
- T/C (dose: 25.0 mg/kg/injection, schedule: Q04DX003 (ip), vehicle: saline): 104 % of control
- T/C (dose: 50.0 mg/kg/injection, schedule: Q04DX003 (ip), vehicle: Klucel (hydroxypropylcellulose) (HPC)): 94 % of control
- T/C (dose: 50.0 mg/kg/injection, schedule: Q04DX003 (ip), vehicle: saline): 116 % of control
- T/C (dose: 100.0 mg/kg/injection, schedule: Q04DX003 (ip), vehicle: saline): 95 % of control
- T/C (dose: 200.0 mg/kg/injection, schedule: Q04DX003 (ip), vehicle: saline): 104 % of control

Structure (SMILES): COc1cccc2c1C(=O)c1c(O)c3c(c(O)c1C2=O)C[C@@](O)(C(C)=O)C[C@@H]3OC1CC(N)C(O)C(C)O1 (some centres undefined)
- T/C [12]: 104 % of control
- T/C [13]: 116 % of control and 87 % of control and 109 % of control
- T/C [14]: 92 % of control
- T/C [1]: 91 % of control and 104 % of control and 109 % of control
- T/C (dose: 0.5 mg/kg/injection, schedule: Q01DX009 (ip), vehicle: water): 90 % of control
- T/C [15]: 100 % of control
- T/C [2]: 100 % of control
- T/C (dose: 1.0 mg/kg/injection, schedule: Q01DX009 (ip), vehicle: water): 109 % of control
- T/C [16]: 100 % of control
- T/C [3]: 100 % of control
- T/C (dose: 2.0 mg/kg/injection, schedule: Q01DX009 (ip), vehicle: water): 100 % of control
